Experiment [1] has as its system Vero. The experiment is described as follows: Cytotoxicity against african green monkey Vero cells. Format: functional, cell-based. Conditions: Chlorocebus sabaeus.
The subject of experiment [2] is BXPC-3. Description: Cytotoxicity against human BXPC3 cells assessed as concentration required for 50% inhibition. Format: functional.
Experiment [3] concerns SF-268. The experiment is described as follows: Cytotoxicity against human SF268 cells assessed as concentration required for 50% inhibition. Format: functional.
Experiment [4] relates to P388. Description: Cytotoxicity against mouse P388 cells assessed as concentration required for 50% inhibition. The class given is functional.
In experiment [5] the test system is MCF7. The experiment is described as follows: Cytotoxicity against human MCF7 cells assessed as concentration required for 50% inhibition. Format: functional.
In experiment [6] the test system is Mycobacterium tuberculosis. The experiment is described as follows: Antibacterial activity against Mycobacterium tuberculosis. Format: functional.
In experiment [7] the test system is KM-20L2. Description: Cytotoxicity against human KM20L2 cells assessed as concentration required for 50% inhibition. Format: functional.
The subject of experiment [8] is DU-145. Description: Cytotoxicity against human DU145 cells assessed as concentration required for 50% inhibition. Format: functional.
Experiment [9] deals with NCI-H460. Description: Cytotoxicity against human NCIH460 cells assessed as concentration required for 50% inhibition. The class given is functional.
In experiment [10] the test system is OVCAR-3. The experiment is described as follows: Cytotoxicity against human OVCAR-3 cells assessed as concentration required for 50% inhibition. The class given is functional.
In experiment [11] the test system is SF-295. The experiment is described as follows: Cytotoxicity against human SF295 cells assessed as concentration required for 50% inhibition. The class given is functional.
Experiment [12] relates to HL-60. The experiment is described as follows: Cytotoxicity against human HL60 cells. The class given is functional, cell-based.
Experiment [13] relates to HeLa. Description: Cytotoxicity against human HeLa cells. The class given is functional, cell-based.
The test system of experiment [14] is A549. Description: Cytotoxicity against human A549 cells. Format: functional, cell-based.
Experiment [15] relates to SK-MEL-5. Description: Cytotoxicity against human SK-MEL-5 cells assessed as concentration required for 50% inhibition. Format: functional.
In experiment [16] the test system is A498. The experiment is described as follows: Cytotoxicity against human A498 cells assessed as concentration required for 50% inhibition. The class given is functional.

This passage reports IC50, Activity and MIC results from ChEMBL document CHEMBL1142397, “Antineoplastic agents. 536. New sources of naturally occurring cancer cell growth inhibitors from marine organisms, terrestrial plants, and microorganisms(1a,)” (J Nat Prod, 2008).

Molecules are shown by their SMILES. ≈ marks a conversion by molar mass, not a printed value. Starred links: 1 amine or outer side, 2 acyl side, 3 side chain; linkers in the order of their positions; H or OH if unused. Non-standard residues stand in square brackets, D forms with d. Residues, ends and D or L forms follow the SMILES beside them. X1 = CCC(N[*:1])C(C)C(=O)O[C@H](C(=O)[*:2])[C@@H](C)CC; X2 = C[C@H](N[*:1])C(=O)C(C)(C)C(=O)[*:2]; NMeY = CN[C@@H](Cc1ccc(O)cc1)C(=O)O; NMeI = CC[C@H](C)[C@H](NC)C(=O)O; NMeV = CN[C@H](C(=O)O)C(C)C

The term IC50 denotes the midpoint of a concentration-inhibition curve. By MIC is commonly meant the least concentration at which growth counts as inhibited.

`Cl.O[C@]12C=C(c3nccc4c3[nH]c3ccccc34)[C@@H]3CCN(CCCC/C=C\CC1)C[C@@]31C[C@@H]3/C=C\CCCCN3[C@H]12` [MANZAMINE A HCL] displayed an IC50 in [1] of 1.7 µg/mL. Further, the Activity was determined as 0.35 µg/mL in experiment [2]; 0.42 µg/mL in experiment [3]; 0.0067 µg/mL in [4]; 0.41 µg/mL in experiment [5]; 99% in [6]; 0.37 µg/mL in experiment [7]. Moreover, the Activity stood at 0.6 µg/mL in [8] and 0.36 µg/mL in experiment [9]. In experiment [6] (Mycobacterium tuberculosis), this compound had an MIC of 6.25 µg/mL.
Consider `C\C(=C/C=C/C(C)=C1/C(=O)C[C@H]2[C@@]3(C)CCC(=O)C(C)(C)[C@@H]3CC[C@]12C)c1ccc(C)c(=O)o1` [STELLETIN A], for which the Activity in experiment [2] stood at 0.078 µg/mL; in experiment [4] it was 0.012 µg/mL; in experiment [5] it was 0.752 µg/mL.
In the case of `O=c1c(-c2ccc(O)cc2)coc2cc(O)ccc12` [DAIDZEIN], the Activity in experiment [2] is 6.2 µg/mL; in experiment [3], 4.4 µg/mL; in experiment [5] it was 5.1 µg/mL; in experiment [7], 8.8 µg/mL; in experiment [8], 7.3 µg/mL; in [9], above 10 µg/mL.
`COc1cc([C@@H]2c3cc4c(cc3C[C@H]3COC(=O)[C@@H]32)OCO4)cc(OC)c1OC` [DESOXYPODOPHYLLOTOXIN]: the Activity in experiment [2] came to 0.00044 µg/mL; in experiment [4] it was 0.029 µg/mL; in [10] it was 0.0027 µg/mL; in experiment [7], 0.0014 µg/mL; in experiment [8], 0.0017 µg/mL; in experiment [11], 0.00056 µg/mL. Moreover, in experiment [9], the Activity was 0.0018 µg/mL.
For `O=c1c(-c2ccc(O)cc2)coc2cc(O)cc(O)c12` [GENISTEIN], the Activity in [2] turned out to be 2.5 µg/mL; in experiment [3] it was 1.7 µg/mL; in experiment [5], 2.5 µg/mL; in experiment [7], 3.7 µg/mL; in experiment [8], 1.9 µg/mL; in experiment [9] it was 1.5 µg/mL.
Regarding `CCCCCCCCCCCCCC(=O)O[C@@H](c1cnco1)c1nc([C@@H](O)C[C@@H](O)[C@@H](O)[C@@H](C)O)co1` [BENGAZOLE A], the Activity in [2] came to 0.14 µg/mL; in experiment [4] it was 0.14 µg/mL; in experiment [10], 0.28 µg/mL; in experiment [7], 0.0031 µg/mL; in experiment [8], 0.15 µg/mL; in experiment [11], 0.19 µg/mL. For the same compound, the Activity in experiment [9] amounted to 0.21 µg/mL.
Take `CCCCCCCCCCCCCCC(=O)O[C@@H](c1cnco1)c1nc([C@@H](O)C[C@@H](O)[C@@H](O)[C@@H](C)O)co1` [BENGAZOLE E]: the Activity in [2] was determined as 0.081 µg/mL; in experiment [4] it was 0.074 µg/mL; in experiment [10], 0.16 µg/mL; in experiment [7], 0.18 µg/mL; in experiment [8], 0.11 µg/mL; in [11], 0.13 µg/mL. For the same compound, the Activity in experiment [9] worked out at 0.14 µg/mL.
On to `CC[C@H](C)[C@@H]1NC(=O)[C@H](CC(C)C)NC(=O)[C@@H]2CCCN2C(=O)[C@H](C(C)C)NC(=O)[C@H](Cc2ccc(O)cc2)NC(=O)[C@@H]2CCCN2C(=O)[C@@H]2CCCN2C(=O)[C@H](CC(C)C)NC1=O` [AXINASTATIN 5] (cyclo(ILPPYVPL)), for which the Activity is 0.68 µg/mL in experiment [2]; 1.8 µg/mL in experiment [3]; 1.9 µg/mL in [4]; 1.4 µg/mL in [5]; 0.28 µg/mL in experiment [7]; 0.87 µg/mL in experiment [8]. For the same compound, the Activity in [9] was found to be 0.82 µg/mL.
In the case of `C[C@H]1CCC/C=C/[C@@H]2C[C@H](O)C[C@H]2[C@H](O)/C=C/C(=O)O1` [BREFELDIN A], the Activity was 0.07 µg/mL in [2]; 0.21 µg/mL in experiment [3]; 0.23 µg/mL in [4]; 0.047 µg/mL in experiment [5]; 0.041 µg/mL in experiment [10]; 0.022 µg/mL in [7]. Also, the Activity in [8] turned out to be 0.13 µg/mL; in experiment [11] it was 0.38 µg/mL; in experiment [9], 0.28 µg/mL.
As to `COc1cc([C@@H]2c3cc4c(c(O[C@@H]5O[C@H](CO)[C@@H](O)[C@H](O)[C@H]5O)c3C[C@H]3COC(=O)[C@@H]32)OCO4)cc(OC)c1OC`, the Activity in [2] is above 1 µg/mL; in [4], 0.21 µg/mL; in [10], 0.85 µg/mL; in experiment [7] it was above 1 µg/mL; in experiment [8] it was above 1 µg/mL; in experiment [11] it was 0.27 µg/mL. Moreover, the Activity in experiment [9] came out at 0.28 µg/mL.
With `CS[C@@H]1[C@H]2C(=O)N(C)[C@@H](C(C)C)C(=O)OC[C@@H](NC(=O)c3cnc4ccccc4n3)C(=O)N[C@@H](C)C(=O)N(C)[C@@H](C[S+]1[O-])C(=O)N(C)[C@@H](C(C)C)C(=O)OC[C@@H](NC(=O)c1cnc3ccccc3n1)C(=O)N[C@@H](C)C(=O)N2C` (stereo not given in full), the IC50 in [12], in [13] and in [14] was 0.2 µg/mL (≈ 0.179 µM) throughout.
In the case of `CC[C@H]1CN2CCc3cc(OC)c(OC)cc3[C@@H]2C[C@@H]1C[C@H]1NCCc2cc(O)c(OC)cc21` [CEPHAELINE], the Activity in experiment [2] is 0.024 µg/mL; in experiment [4], 0.0027 µg/mL; in experiment [10], 0.032 µg/mL; in experiment [7], 0.022 µg/mL; in experiment [8], 0.0098 µg/mL; in [11], 0.018 µg/mL. Also, in [9], the Activity came to 0.022 µg/mL.
Take `CCC1NC(=O)[C@H](C)NC(=O)C(C)(C)C(=O)[C@H](C)NC(=O)[C@H](Cc2ccc(OC)cc2)N(C)C(=O)[C@H](C(C)C)N(C)C(=O)CNC(=O)[C@H]([C@@H](C)CC)N(C)C(=O)CNC(=O)[C@H]([C@@H](C)CC)OC(=O)C1C` (stereo not given in full) [MAJUSCULAMIDE C] (cyclo(A[X1]G[NMeI]G[NMeV][NMeY](Me)[X2])): the Activity came out at 0.0068 µg/mL in [15]; 0.51 µg/mL in [10]; 0.058 µg/mL in experiment [16]; 0.0013 µg/mL in experiment [7]; 0.13 µg/mL in experiment [11]; 0.0032 µg/mL in experiment [9].
